Test results from the OligoGym collection.
Oligonucleotides are written 5' to 3', each unit as a sugar letter and its base; * is a phosphorothioate linkage, no mark a phosphodiester; rarer units and linkages stand in square brackets, end groups in braces. Plain capitals give the bases only. d = 2'-deoxy (DNA); r = 2'-OH (RNA)

These substances were tested against NOG (assay: reporter assay of Huesken 2005). Conditions: siRNA.
Further: test concentration or dose not given here.

Going from “sense rGrGrCrUrUrCrArUrGrGrCrCrArCrCrUrCrGrCdTdT / antisense rGrCrGrArGrGrUrGrGrCrCrArUrGrArArGrCrCdTdG” to “sense rGrArUrGrUrGrGrCrUrGrUrGrGrUrCrGrCrArGdTdT / antisense rCrUrGrCrGrArCrCrArCrArGrCrCrArCrArUrCdTdG”, the normalised inhibition (eCFP-eYFP dual reporter) rises from 64.6% to 81.7%.

Going from “sense rArCrUrArUrCrUrCrCrArCrArUrCrCrGrCrCrCdTdT / antisense rGrGrGrCrGrGrArUrGrUrGrGrArGrArUrArGrUdGdC” to “sense rUrGrGrUrCrGrCrArGrArCrArUrUrCrUrGrCrCdTdT / antisense rGrGrCrArGrArArUrGrUrCrUrGrCrGrArCrCrAdCdA”, the normalised inhibition (eCFP-eYFP dual reporter) falls from 52.8% to 40.5%.

Going from “sense rCrGrCrUrGrCrUrGrCrGrCrUrCrGrCrUrGrCrUdTdT / antisense rArGrCrArGrCrGrArGrCrGrCrArGrCrArGrCrGdTdC” to “sense rGrGrCrGrGrCrCrArGrCrArCrUrArUrCrUrCrCdTdT / antisense rGrGrArGrArUrArGrUrGrCrUrGrGrCrCrGrCrCdGdG”, the normalised inhibition (eCFP-eYFP dual reporter) rises from 73.4% to 87.4%.

First: sense rCrCrCrGrUrGrCrUrGrUrArCrGrCrGrUrGrGrAdTdT / antisense rUrCrCrArCrGrCrGrUrArCrArGrCrArCrGrGrGdGdC
Second: sense rArGrUrArArGrCrGrCrUrCrGrUrGrCrUrCrCrGdTdT / antisense rCrGrGrArGrCrArCrGrArGrCrGrCrUrUrArCrUdGdA
The normalised inhibition (eCFP-eYFP dual reporter) of the first is higher: 60.3% for the first, 51% for the second.

Compared with “sense rArUrGrGrUrGrUrGrCrArArGrCrCrGrUrCrCrAdTdT / antisense rUrGrGrArCrGrGrCrUrUrGrCrArCrArCrCrArUdGdC”, “sense rCrCrCrArGrCrGrArCrArArCrCrUrGrCrCrCrCdTdT / antisense rGrGrGrGrCrArGrGrUrUrGrUrCrGrCrUrGrGrGdTdG” is lower in normalised inhibition (eCFP-eYFP dual reporter): 86.2% for the first, 68.1% for the second.

First: sense rUrCrCrGrCrCrCrGrGrCrArCrCrCrArGrCrGrAdTdT / antisense rUrCrGrCrUrGrGrGrUrGrCrCrGrGrGrCrGrGrAdTdG
Second: sense rGrCrUrGrCrUrGrCrGrCrUrCrGrCrUrGrCrUrCdTdT / antisense rGrArGrCrArGrCrGrArGrCrGrCrArGrCrArGrCdGdT
The normalised inhibition (eCFP-eYFP dual reporter) of the first is lower: 72% for the first, 78.8% for the second.

Going from “sense rGrCrArGrCrUrGrCrUrUrCrArGrUrArArGrCrGdTdT / antisense rCrGrCrUrUrArCrUrGrArArGrCrArGrCrUrGrCdCdC” to “sense rCrCrUrCrArCrGrGrUrGrCrUrGrCrGrGrUrGrGdTdT / antisense rCrCrArCrCrGrCrArGrCrArCrCrGrUrGrArGrGdTdG”, the normalised inhibition (eCFP-eYFP dual reporter) rises from 63.1% to 70.1%.

With “sense rCrCrUrCrArUrCrGrArArCrArCrCrCrArGrArCdTdT / antisense rGrUrCrUrGrGrGrUrGrUrUrCrGrArUrGrArGrGdTdC” the normalised inhibition (eCFP-eYFP dual reporter) was 79.3%.

These substances were tested against UFC1 (assay: reporter assay of Huesken 2005). Conditions: siRNA.

Going from “sense rGrGrCrUrCrUrGrGrGrGrCrUrGrGrGrUrCrCrAdTdT / antisense rUrGrGrArCrCrCrArGrCrCrCrCrArGrArGrCrCdAdT” to “sense rCrUrGrGrGrUrCrCrArUrGrGrCrUrGrGrCrArGdTdT / antisense rCrUrGrCrCrArGrCrCrArUrGrGrArCrCrCrArGdCdC”, the normalised inhibition (eCFP-eYFP dual reporter) falls from 69.9% to 60.5%.

First: sense rArArArUrCrCrCrUrGrArUrCrUrGrArUrUrCrAdTdT / antisense rUrGrArArUrCrArGrArUrCrArGrGrGrArUrUrUdCdC
Second: sense rGrCrCrCrCrArGrArArArUrUrGrCrArGrUrUrCdTdT / antisense rGrArArCrUrGrCrArArUrUrUrCrUrGrGrGrGrCdAdG
The normalised inhibition (eCFP-eYFP dual reporter) of the first is higher: 81% for the first, 61.7% for the second.

Going from “sense rGrGrGrUrGrCrArGrCrGrArCrUrGrArArGrGrAdTdT / antisense rUrCrCrUrUrCrArGrUrCrGrCrUrGrCrArCrCrCdAdC” to “sense rUrGrCrCrCrCrArGrArArArUrUrGrCrArGrUrUdTdT / antisense rArArCrUrGrCrArArUrUrUrCrUrGrGrGrGrCrAdGdT”, the normalised inhibition (eCFP-eYFP dual reporter) falls from 85.9% to 44.9%.

Going from “sense rCrUrGrArUrCrUrGrArUrUrCrArGrArArGrGrGdTdT / antisense rCrCrCrUrUrCrUrGrArArUrCrArGrArUrCrArGdGdG” to “sense rGrCrUrGrGrCrArGrUrGrGrArArArUrCrCrCrUdTdT / antisense rArGrGrGrArUrUrUrCrCrArCrUrGrCrCrArGrCdCdA”, the normalised inhibition (eCFP-eYFP dual reporter) falls from 73.2% to 48.5%.

Compared with “sense rUrCrArGrUrCrCrCrUrUrArUrCrCrGrGrUrArUdTdT / antisense rArUrArCrCrGrGrArUrArArGrGrGrArCrUrGrAdTdA”, “sense rGrArArArUrArUrGrArGrUrUrUrGrArCrArUrCdTdT / antisense rGrArUrGrUrCrArArArCrUrCrArUrArUrUrUrCdAdG” is lower in normalised inhibition (eCFP-eYFP dual reporter): 88.9% for the first, 66.9% for the second.

Going from “sense rCrCrGrGrUrArUrGrUrGrGrArGrArArCrArArCdTdT / antisense rGrUrUrGrUrUrCrUrCrCrArCrArUrArCrCrGrGdAdT” to “sense rArCrGrGrArUrCrArUrUrUrCrArArArCrCrUrUdTdT / antisense rArArGrGrUrUrUrGrArArArUrGrArUrCrCrGrUdCdA”, the normalised inhibition (eCFP-eYFP dual reporter) rises from 72.3% to 106%.

Compared with “sense rArCrArArCrArArGrArArUrGrCrUrGrArCrArAdTdT / antisense rUrUrGrUrCrArGrCrArUrUrCrUrUrGrUrUrGrUdTdC”, “sense rArCrCrUrCrCrUrGrArArArUrArUrGrArGrUrUdTdT / antisense rArArCrUrCrArUrArUrUrUrCrArGrGrArGrGrUdCdA” is lower in normalised inhibition (eCFP-eYFP dual reporter): 86.4% for the first, 43.5% for the second.

First: sense rArArGrArUrGrUrArCrArGrGrGrGrUrGrGrCrAdTdT / antisense rUrGrCrCrArCrCrCrCrUrGrUrArCrArUrCrUrUdTdG
Second: sense rArGrUrUrUrGrArCrArUrCrGrArGrUrUrUrGrAdTdT / antisense rUrCrArArArCrUrCrGrArUrGrUrCrArArArCrUdCdA
The normalised inhibition (eCFP-eYFP dual reporter) of the first is lower: 62.3% for the first, 122% for the second.

Compared with “sense rGrCrGrArCrUrGrArArGrGrArGrGrArArUrArUdTdT / antisense rArUrArUrUrCrCrUrCrCrUrUrCrArGrUrCrGrCdTdG”, “sense rCrCrUrGrArGrCrUrGrGrArUrGrGrArArArGrAdTdT / antisense rUrCrUrUrUrCrCrArUrCrCrArGrCrUrCrArGrGdAdA” is higher in normalised inhibition (eCFP-eYFP dual reporter): 107% for the first, 120% for the second.

First: sense rGrUrGrGrArGrArArCrArArCrArArGrArArUrGdTdT / antisense rCrArUrUrCrUrUrGrUrUrGrUrUrCrUrCrCrArCdAdT
Second: sense rGrArArUrGrUrGrCrCrCrArArArUrUrUrGrGrAdTdT / antisense rUrCrCrArArArUrUrUrGrGrGrCrArCrArUrUrCdCdT
The normalised inhibition (eCFP-eYFP dual reporter) of the first is higher: 68.9% for the first, 67.9% for the second.

Going from “sense rArGrUrCrCrCrUrUrArUrCrCrGrGrUrArUrGrUdTdT / antisense rArCrArUrArCrCrGrGrArUrArArGrGrGrArCrUdGdA” to “sense rCrArGrUrCrCrCrUrUrArUrCrCrGrGrUrArUrGdTdT / antisense rCrArUrArCrCrGrGrArUrArArGrGrGrArCrUrGdAdT”, the normalised inhibition (eCFP-eYFP dual reporter) rises from 74.6% to 78.8%.

Compared with “sense rCrCrGrGrArCrCrCrCrGrArGrArUrCrGrUrGrAdTdT / antisense rUrCrArCrGrArUrCrUrCrGrGrGrGrUrCrCrGrGdCdG”, “sense rGrCrCrArGrGrArArUrGrUrGrCrCrCrArArArUdTdT / antisense rArUrUrUrGrGrGrCrArCrArUrUrCrCrUrGrGrCdCdC” is higher in normalised inhibition (eCFP-eYFP dual reporter): 56.6% for the first, 77.2% for the second.

Compared with “sense rArCrCrUrUrUrGrUrGrGrGrCrCrArGrGrArArUdTdT / antisense rArUrUrCrCrUrGrGrCrCrCrArCrArArArGrGrUdTdT”, “sense rArUrCrUrCrArUrGrGrCrUrCrUrGrGrGrGrCrUdTdT / antisense rArGrCrCrCrCrArGrArGrCrCrArUrGrArGrArUdGdA” is lower in normalised inhibition (eCFP-eYFP dual reporter): 56.9% for the first, 53.8% for the second.

First: sense rCrUrGrArCrGrGrArUrCrArUrUrUrCrArArArCdTdT / antisense rGrUrUrUrGrArArArUrGrArUrCrCrGrUrCrArGdGdC
Second: sense rArGrGrGrCrGrUrCrArUrCrCrArArCrArCrArAdTdT / antisense rUrUrGrUrGrUrUrGrGrArUrGrArCrGrCrCrCrUdTdC
The normalised inhibition (eCFP-eYFP dual reporter) of the first is lower: 65.7% for the first, 107% for the second.

First: sense rCrGrArGrUrUrUrGrArCrArUrUrCrCrUrArUrCdTdT / antisense rGrArUrArGrGrArArUrGrUrCrArArArCrUrCrGdAdT
Second: sense rUrGrGrUrArUrArUrCrCrArUrGrArCrCrUrCrCdTdT / antisense rGrGrArGrGrUrCrArUrGrGrArUrArUrArCrCrAdGdC
The normalised inhibition (eCFP-eYFP dual reporter) of the first is higher: 95.7% for the first, 31.4% for the second.

First: sense rArGrGrArArGrGrArArCrUrCrGrGrUrGrGrUrUdTdT / antisense rArArCrCrArCrCrGrArGrUrUrCrCrUrUrCrCrUdTdG
Second: sense rUrArCrUrGrCrCrCrCrArGrArArArUrUrGrCrAdTdT / antisense rUrGrCrArArUrUrUrCrUrGrGrGrGrCrArGrUrAdGdT
The normalised inhibition (eCFP-eYFP dual reporter) of the first is higher: 61.8% for the first, 52.2% for the second.

Compared with “sense rArArGrArCrArGrCrArArArGrArUrGrUrArCrAdTdT / antisense rUrGrUrArCrArUrCrUrUrUrGrCrUrGrUrCrUrUdTdC”, “sense rGrGrArUrGrGrArArArGrArCrArGrCrArArArGdTdT / antisense rCrUrUrUrGrCrUrGrUrCrUrUrUrCrCrArUrCrCdAdG” is lower in normalised inhibition (eCFP-eYFP dual reporter): 113% for the first, 103% for the second.

Compared with “sense rArGrUrUrGrUrGrGrGrUrGrCrArGrCrGrArCrUdTdT / antisense rArGrUrCrGrCrUrGrCrArCrCrCrArCrArArCrUdCdA”, “sense rArUrGrGrArArArGrArCrArGrCrArArArGrArUdTdT / antisense rArUrCrUrUrUrGrCrUrGrUrCrUrUrUrCrCrArUdCdC” is lower in normalised inhibition (eCFP-eYFP dual reporter): 80.4% for the first, 69.9% for the second.

With “sense rCrUrGrGrArGrUrCrCrArArCrArArGrGrArArGdTdT / antisense rCrUrUrCrCrUrUrGrUrUrGrGrArCrUrCrCrArGdTdC” the normalised inhibition (eCFP-eYFP dual reporter) was 66.3%.
